What was measured:
MDA-MB-231 cells = assay: Cell proliferation assay (IncuCyte confluence), MDA-MB-231; assay type: cell-based, human
Procedure: Cell proliferation was measured by a label-free, non-invasive cellular confluence assay using IncuCyte Live-Cell Imaging Systems (Essen Bioscience, Ann Arbor, MI, USA). MDA-MB-231 breast cancer and A549 lung carcinomas cells (1500 cells in 150 μl/well) were seeded overnight on a clear 96-well plate. Twenty-four hours later, the cells were treated with 0.1% DMSO, or different concentrations of Rasarfin (as indicated), or 10 µM of 21.4 or 21.8 for 96 h total. The plate was placed in an XL-3 incubation chamber maintained at 37 °C and the cells were photographed using a ×4 objective, every 3 h for 4 days. Cell confluence was calculated using IncuCyte S3 software (2019A) and cell proliferation was expressed as an increase in the percentage of confluence. Experiments were done in triplicate and repeated three times.

H-Ras = H-Ras (Homo sapiens, UniProt P01112); assay: In vitro mant-GTP exchange assay, purified H-Ras with purified SOS1; assay type: biochemical; set-up: the cDNA of H-Ras (full length) was obtained by RT-PCR of HEK293SL; GST (N); host or cells: E. coli BL21
H-Ras, sequence (P01112 whole entry): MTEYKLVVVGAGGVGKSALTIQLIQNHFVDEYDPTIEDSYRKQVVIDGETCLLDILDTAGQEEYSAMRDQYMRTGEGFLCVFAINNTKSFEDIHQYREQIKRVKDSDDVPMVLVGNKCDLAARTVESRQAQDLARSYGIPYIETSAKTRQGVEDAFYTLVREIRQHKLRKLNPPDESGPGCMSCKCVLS
Procedure: Ras activity was assessed in a 384-well black bottom plate using the mant-GTP exchange factor assay that measures the uptake of the fluorescent nucleotide analog N-methylanthraniloyl-GTP (mant-GTP) into GTPases. For Ras activation, 2X exchange buffer, 1.66 μg of purified pGEX-6P-1-H-Ras or pGEX-6P-1-K-Ras-WT or pGEX-6P-1-K-Ras-Y32A were added per well in presence of DMSO, different concentrations of Rasarfin (as indicated) or 50 µM of compounds 21.4, 21.7, or 21.8. Using the Infinite 200 Pro plate reader (Tecan) with filters set at 360 nm and 440 nm for detecting the excitation and emissions, respectively, and temperature set at 20 °C, 5 readings were recorded every 5 s before the addition of either H2O, 40 mM EDTA or 0.66 μg purified SOS1. The fluorescence of mant-GTP uptake was measured every 30 sec for 30 min and quantified as the delta relative fluorescence units (RFU), which was calculated as the RFU post-addition minus the 5 averaged RFU pre-addition, per condition.

Structure (SMILES) | MDA-MB-231 cell growth (confluency) (MDA-MB-231 cells; various concentrations of Rasarfin) | uptake of mant-GTP into purified H-Ras in presence of SOS1 (H-Ras; different concentrations) | MDA-MB-231 cell proliferation (confluency) (MDA-MB-231 cells; 10 µM) | Ras exchange activity, mant-GTP loading into H-Ras with SOS1 (Fig. 8c) (H-Ras; 50 μM)
CC(C)C(=O)N1CCN(c2ccc(NC(=O)c3cc4ccccc4o3)cc2Cl)CC1 [Compound 21] | dose-dependent reduction in cell growth over time | inhibited in a dose-dependent manner the uptake of GTP into Ras |  | 
CCCC(=O)N1CCN(c2ccc(NC(=O)c3cc4ccccc4o3)cc2Cl)CC1 [Compound 21.8] |  |  | inhibited cell proliferation | inhibited Ras exchange activity

From article PMC8333425, “Discovery of a dual Ras and ARF6 inhibitor from a GPCR endocytosis screen” (Nature Communications, 2021)
